Assay results published in US20240174716A1, “TRANSPORTER PEPTIDES AND APPLICATION THEREOF” (Vacino Biotech Co. Ltd, priority 2022, published 2024).
Values joined by “and” are separate entries in the source; they are usually repeats but may differ in a detail not shown here. Equal entries are not always repeated. Where two headings read alike, the source gives them in different places. Peptide text beside a SMILES is read from it.

How the values were obtained:
[1] = In vivo imaging system (IVIS) analysis of fluorescent dye-conjugated transporter peptides; design: species or system BALB/c mice; conditions: for quantified fluorescence signal in mouse brain: after 0.5 hour of the injection; for half-life: BALB/c, mouse, brain, intravenous, read-out: half-life of the fluorescence in the mouse brains (converted)
Description: In this Example, the transporter peptide disclosed herein was administered to mice, and the distribution of the transporter peptide in the mice was detected with an in vivo fluorescence imaging system (IVIS).
One (1) mg of each transporter peptides PT-001 (SEQ ID NO: 2), PT-025 (SEQ ID NO: 11), PT-034 (SEQ ID NO: 19), and PT-031 (SEQ ID NO: 17) was dissolved in 1 mL of buffer containing 50 mM sodium bicarbonate/bicarbonate to a final concentration of 1 mg/mL. […] of 10 mg/mL fluorescent dye (VivoTag 680 XL, PerkinElmer, USA) was added to the 1 mL transporter peptide solution, and the mixture was incubated at room temperature in the dark for 1 hour. The dye-labeled product was filtered with a 3 KDa centrifugal filter device (Amicon Ultra-0.5 Centrifugal filter devices, Millipore, USA) and centrifuged at 14,000×g for 15 minutes. The fluorescent dye-conjugated transporter peptide was diluted with 1×PBS to a final volume of 0.2 mL.
BALB/c mice (BioLASCO Taiwan Co., Ltd, Taipei, Taiwan) at the age of 7-8 weeks were divided into a control group (n=1) and a test group (n=3). The mouse in the control group was administered 50 μL of fluorescent dye via tail vein injection. Mice in the group were administered 50 μL of the transporter peptide conjugated with fluorescent dye obtained above via tail vein injection. Mice were photographed using an optical imaging system (U-OI, MlLabs, Netherlands) at 0.5, 1, 2, 4, 6 and 24 hours after the injection for IVIS imaging analysis, with the excitation wavelength of 631 nm, the emission wavelength of 710 nm, and 10-second exposure time. Fluorescence signals of mouse brains were further quantified.

[2] = test system: Caco-2 cell monolayer; conditions: PT-034 on top of monolayer, 37° C.
Description: In this example, the transport efficiency of the transporter peptide disclosed herein to the Caco-2 cell monolayer was tested to analyze the penetration effect of the transporter peptide on the tissue barrier, and to analyze the ability of the transporter peptide to induce transcytosis of the cell.
Caco-2 cells were plated at 2×10^4 cells/cm^2 on 24-transwell inserts (BD Falcon, 353495) in DMEM medium with 10% FBS and cultured for 21 days to form a monolayer. Monolayers were then confirmed by transepithelial electrical resistance (TEER), and the monolayers which have at least 500-600 Ω cm^2 of TEER were qualified monolayers for the following transcytosis experiment.
HPLC was conducted by using a Water ACQUITY Arc system. The chromatographic separation was performed on a C18 column (Waters XSelect HSS T3 […], 4.6 mm×250 mm). Column temperature was maintained and operated at 40° C. The mobile phase consisted of A-0.1% trifluoroacetic acid in water and B-100% methanol. Separation was performed according to the following gradient program: 0 min-10% B, 6 min-30% B, 12 min-50% B, 18 min-90% B, 23 min-10% B. The flow rate of the mobile phase was at 1 mL/min, the injection volume of the sample was 20 μL, and the total run time was within 30 mins.
The caco-2 monolayers with TEER at 680 Ω cm^2 were equilibrated in DMEM medium (serum free). […] of PT-034 (SEQ ID NO: 19) was applied to the top of Caco-2 monolayers at 37° C. Samples of both upper and lower solution were collected at 0, 0.25, 0.5, 1, 2, 6 hours. Peptides were purified from the sample solution by solid phase extraction (SPE) using C-18 tips (Cat. no. 87784, Pierce, Waltham, Massachusetts, USA). Each sample was supplemented with a final concentration of 11.43 μM PT-034 as internal control. 300 μL sample was absorbed by the C18 tip and eluted by 100 μL methanol. The sample was then subjected to HPLC analysis. The HPLC peak area was calculated at retention time of 16.9 minutes, and a standard curve was plotted for calculating the contents of the transporter peptide in the sample solutions.

[3] = 10 mg/kg tail vein injection
[4] = 1 mg/kg dye-conjugated peptide, tail vein injection, 0.5, 1, 2, 4 and 6 hours after injection

Row | SMILES | distribution of fluorescent signal in mice (IVIS) [1, 4] | quantified fluorescence signal in mouse brain ([1]; 1 mg/kg, tail vein injection) | half-life ([1]; 1 mg/kg, tail vein injection) [h] | transporter peptide penetrated the Caco-2 cell monolayer ([2]; 0.25 hours) | transporter peptide penetrated the Caco-2 cell monolayer ([2]; 1 hour) [%] | transporter peptide penetrated the Caco-2 cell monolayer ([2]; 2 hours) [%] | transporter peptide penetrated the Caco-2 cell monolayer ([2]; 6 hours) [%] | distribution of fluorescent signal in mice (IVIS) ([1]; 10 mg/kg dye-conjugated peptide, tail vein injection, 1, 2, 4 and 6 hours after injection) | quantified fluorescence signal in mouse brain compared with control group (Dye) ([1]; 10 mg/kg, tail vein injection, after 1 hour of the injection) | half-life ([1]; 10 mg/kg, tail vein injection) [h] | Content of the transporter peptid in the brain tissue ([3]; brain collected one hour after injection, individual mouse) | Injection dose/brain tissue weight ([3]; one hour after injection, individual mouse) | average transport efficiency to the brain ([3]; one hour after injection, mean of 2 mice)
1 | CC[C@H](C)[C@H](NC(=O)[C@@H](N)CC(=O)O)C(=O)N[C@@H](CO)C(=O)N[C@H](C(=O)N[C@@H](CC(C)C)C(=O)N[C@@H](CCSC)C(=O)N[C@@H](CCCCN)C(=O)N[C@@H](CCC(=O)O)C(=O)N[C@@H](Cc1ccc(O)cc1)C(=O)N[C@@H](CC(=O)O)C(=O)O)C(C)C [PT-001, DISVLMKEYD] (H-DISVLMKEYD-OH) | enriched in the brain and spine | high levels of fluorescent signals | ~5 |  |  |  |  |  |  |  |  |  | 
2 | CC[C@H](C)[C@H](NC(=O)[C@@H](N)CC(=O)O)C(=O)N[C@@H](CO)C(=O)N[C@H](C(=O)N[C@@H](CC(C)C)C(=O)N[C@@H](CC(=O)O)C(=O)N[C@@H](CCCCN)C(=O)N[C@@H](CCC(=O)O)C(=O)N[C@@H](Cc1ccc(O)cc1)C(=O)N[C@@H](CC(=O)O)C(=O)O)C(C)C [PT-025, DISVLDKEYD] (H-DISVLDKEYD-OH; N-terminus and C-terminus assumed) | enriched in the brain and spine | high levels of fluorescent signals | ~5 |  |  |  |  |  |  |  |  |  | 
3 | CC[C@H](C)[C@H](NC(=O)[C@@H](N)CC(=O)O)C(=O)N[C@@H](CO)C(=O)N[C@H](C(=O)N[C@@H](CC(C)C)C(=O)N[C@@H](CCSC)C(=O)N[C@@H](CCCCN)C(=O)N[C@@H](CCC(=O)O)C(=O)N[C@@H](Cc1ccc(O)cc1)C(=O)N[C@@H](CC(N)=O)C(=O)O)C(C)C [PT-031, DISVLMKEYN] (H-DISVLMKEYN-OH) | enriched in the brain and spine | high levels of fluorescent signals | ~5 |  |  |  |  |  |  |  |  |  | 
4 | CC[C@H](C)[C@H](NC(=O)[C@@H](N)CC(=O)O)C(=O)N[C@@H](CO)C(=O)N[C@H](C(=O)N[C@@H](CC(C)C)C(=O)N[C@@H](CCSC)C(=O)N[C@@H](CCCCN)C(=O)N[C@@H](CCC(=O)O)C(=O)N[C@@H](Cc1ccc(O)cc1)C(=O)N[C@@H](CCC(N)=O)C(=O)O)C(C)C [PT-034, DISVLMKEYQ] |  |  |  | about 8% | ~40 | ~42 | ~56 | enriched in the brain and spine | high level of fluorescent signal | ~5 | 25.9 µg and 25.5 µg | 23.48% ID/g of brain and 22.09% ID/g of brain | 22.79 % ID/g of brain
